US20030154517A1, “Efficiency agrobacterium-mediated wheat transformation method” (priority 2001, published 2003)
Several values for one entry are separate records, joined by “and”; a condition that tells them apart may be missing. Equal values may be shown once. Read-outs that look alike come from different tables or passages of the source.

Key:
[1] = tested on: immature embryos of wheat; assay: Agrobacterium-mediated wheat transformation, nptII (G418/kanamycin) selection (transformation efficiency); format: cell-based, Triticum aestivum L
Source text: (§1) Immature embryos of wheat (Triticum aestivum L) cv Bobwhite were isolated from the immature caryopsis (wheat spikelets) 12-15 days after pollination, and cultured on CM4C (Table 2) for 1-8 days, most typically for 4-6. The embryos without embryogenic callus were selected for Agrobacterium inoculation.
A disarmed Agrobacterium strain C58 (ABI) harboring a binary vector was used for all the experiments. […] The Agrobacterium cells were resuspended in the inoculation medium and the density was adjusted to an OD660 of 1. […] An equal amount of the Agrobacterium cell suspension was added such that the final concentration of Agrobacterium cells was an OD660 of 0.5. In most experiments, pluronic F68 was added to the inoculation mixture at a final concentration of 0.01%. The ratio between the Agrobacterium and immature embryos (IEs) was about 10 mL: 20-200 IEs. The conditions for inoculation were temperatures from about 23° C.-26° C. with a duration from about 5-60 minutes.
(§2) After the inoculation period, the remaining Agrobacterium cells were removed from the explants by using the in-house vacuum equipment. A piece of sterile Whatman No. 1 filter paper (to fit the size of the petri plate) was placed in each of 60×15 or 60×20 mm petri dishes without additional liquid or agar-supplemented media. Two hundred microliters of sterile water was placed in the middle of the filter paper. After 2-3 minutes, the inoculated immature embryos were placed in the plates. Usually, 20-50 explants are grouped as one stack (about 1 cm in size and 60-80 mg/stack), with 4-5 stacks on each plate. The plates were immediately parafilmed and then co-cultivated in the dark at 24° C.-26° C. for 2-3 days.
For nptII selection, immature embryos were isolated, precultured, inoculated, and co-cultured as previously described. After the 3-day co-culture, embryos were transferred to delay culture (solid CM4C2D) media (CM4C media as in Table 2 with 2 mg/L 2,4-D) with 500 mg/L carbenicillin for 7 days in the dark at 25° C. Selection was done in liquid CM4C media (as in Table 2 without the Phytagel) with 100 mg/L carbenicillin and 20 mg/L G418 on a support for 7 days in the dark followed by 7 days in the light (16 hr photoperiod), at 25° C. The calli were then transferred to liquid MMS0.2C media (as in Table 2 without the gelling agent) with 100 mg/L carbenicillin and 25 mg/L G418 on a support for 2 weeks at 25° C. with a 16 hr photoperiod. After 2 weeks, the calli were transferred to liquid MMSOC media (as in Table 2 without the gelling agent) with 100 mg/L carbenicillin and 25 mg/L G418 on a support for 2 to 4 weeks at 25° C. with a 16 hr photoperiod. Plantlets were transferred to solid MMSOC media with 100 mg/L carbenicillin and 25 mg/L G418 in sundae cups for 1 to 4 weeks at 25° C. with a 16 hr photoperiod.

[2] = tested on: immature embryos of wheat (Triticum aestivum L) cv Bobwhite; assay: Agrobacterium-mediated wheat transformation, glyphosate selection (transformation efficiency); format: cell-based
Source text: as §1
A disarmed Agrobacterium strain C58 (ABI) harboring a binary vector was used for all the experiments. For the control experiments, cultures of Agrobacterium were initiated from glycerol stocks or from a freshly streaked plate and grown overnight at 26° C.-28° C. with shaking (approximately 150 rpm) to mid-log phase (about OD660=1-1.5) in liquid LB medium, pH 7.0 (Miller, 1972) containing 50 mg/L kanamycin, 50 mg/L streptomycin and spectinomycin, and 25 mg/L chloramphenicol with 200 μM acetosyringone (AS). The Agrobacterium cells were resuspended in the inoculation medium and the density was adjusted to an OD660 of 1. The immature embryos cultured in CM4C medium were transferred into sterile petri plates (16×20 mm) or wells of a 6-well cell culture plate (Costar Corporation, Cambridge, Mass.) containing 10 mL of inoculation medium per petri plate or 5 mL per cell culture cluster plate. An equal amount of the Agrobacterium cell suspension was added such that the final concentration of Agrobacterium cells was an OD660 of 0.5. In most experiments, pluronic F68 was added to the inoculation mixture at a final concentration of 0.01%. The ratio between the Agrobacterium and immature embryos (IEs) was about 10 mL: 20-200 IEs. The conditions for inoculation were temperatures from about 23° C.-26° C. with a duration from about 5-60 minutes.
as §2
After a 3-day co-cultivation, the Agrobacterium-infected precultured immature embryos (PCIE) and embryogenic calli were transferred to CM4C medium (Table 2) supplemented with 500 mg/L carbenicillin and cultured for about seven days. This “delay” medium could also contain glyphosate as discussed in Example 4.
The explants were then transferred to CM4C selection medium with 2 mM glyphosate and 500 mg/L carbenicillin for one week in the dark. All the calli were transferred to MMS0.2C (Table 2) supplemented with 0.1 mM glyphosate and 250 mg/L carbenicillin (first regeneration medium) for an additional two weeks of selection with lighting conditions of about 80 μE. […] All the embryogenic calli were transferred to the second regeneration medium MMS0C (Table 2) supplemented with 500 mg/L carbenicillin and 0.02 mM glyphosate. Aromatic amino acids including I-tryptophan, L-tyrosine, and I-phenylalanine (10^−7 mM/amino acid) were added to this medium to facilitate the selection. These tissues were transferred to fresh media every two weeks. […] Once the root system was established, the plants were transferred to soil and subsequently assayed. […]

[3] = tested on: immature embryos of wheat (Triticum aestivum L) cv Bobwhite; assay: as above; format: cell-based; remark: listed apart in the source
[4] = Table 19: compound at 2 μM in second regeneration stage (MMSOC media)
[5] = Table 19: compound at 20 μM in second regeneration stage (MMSOC media)
[6] = Table 19 compounds at the concentrations tested (2 and/or 20 μM) in MMSOC

O=S(=O)([O-])[O-].[Zn+2] [Zinc sulfate]
Independent transgenic events/explants [1]: 12/219 and 17/107
effectiveness at increasing TE [1]: not effective
% TE [1, 4]: 5.5%
% TE [1, 5]: 15.9%

O=S(=O)([O-])[O-].[Mn+2] [Manganese sulfate]
% TE [1, 5]: 4.2%
Independent transgenic events/explants [1, 5]: 8/189
effectiveness at increasing TE [1, 6]: not effective

[Cl][Co][Cl] [Cobalt chloride]
% TE [1, 5]: 9.2%
Independent transgenic events/explants [1, 5]: 19/207
effectiveness at increasing TE [1, 6]: more effective than the negative control

[Cl][Cu][Cl] [Copper chloride]
% TE [1, 4]: 16.8%
Independent transgenic events/explants [1, 4]: 37/220
% TE [1, 5]: 24.2%
Independent transgenic events/explants [1, 5]: 55/227

[Cl-].[Cl-].[Mg+2] [Magnesium chloride]
% TE [1]: 3.0%
Independent transgenic events/explants [1]: 7/231
effectiveness at increasing TE [1]: not effective

O=C(O)CNCP(=O)(O)O [glyphosate]
TE % ([2]; 0.02 mM glyphosate in preculture and delay culture media (CM4C), per experiment and Total, listed as gly): 3.7% and 3.8% and 4.9% and 8.3% and 2.4%
Efficiency % ([2]; 0.1 mM gly in MMS0.2C first regeneration medium, per experiment and Total, listed as gly): 4.7% and 1.6% and 2.3% and 0.0% and 2.9%
Efficiency % ([2]; Table 9b treatment 1: MMS0.2C + 0.1 Gly, two experiments and Total, listed as Gly): 4.8% and 6.8% and 8.9%
transformation efficiency ([2]; glyphosate at 0.02 mM in preculture and delay culture media): significantly improved
TE % ([2]; selection 7 days in CM4C + 2 mM glyphosate, per experiment and Total): 5.2% and 1.5% and 4.4% and 3.1% and 4% and 2.2%
Efficiency % ([3]; 0.5 mM gly in MMS0.2C first regeneration medium, per experiment and Total, listed as gly): 1.5% and 7.9% and 2.8% and 3.7% and 3.0%
Efficiency % ([3]; 1.0 mM gly in MMS0.2C first regeneration medium, per experiment and Total, listed as gly): 5.0% and 5.3% and 4.2% and 2.5%
Efficiency % ([3]; Table 9b treatment 2: MMS0.2C + 0.5 Gly, two experiments and Total, listed as Gly): 7.7% and 10.7% and 13.7%
TE % ([3]; selection 10 days in CM4C + 2 mM glyphosate, per experiment and Total): 8.6% and 1.25% and 6.4% and 4.8% and 7.3% and 5.3%

Copper acetate
% TE [1]: 23.0%
Independent transgenic events/explants [1]: 53/230
